According to US11467161B2, “Biomarkers of therapeutic responsiveness” (Meso Scale Technologies, LLC., priority 2013, dated 2022):
Read-outs that look alike come from different tables or passages of the source.

Columns and labels:
[1] = system: 786-0 xenograft; test: Biomarker levels in 786-0 RCC xenograft tumor extracts (MSD multiplex immunoassay); format: in vivo, mice
Description: (§1) A panel of biomarkers was measured in Melanoma and RCC xenograft tissue extracts from mice, described in Table 4. Xenografts were generated using the listed melanoma and RCC cell lines, and tumors harvested and extracted following the indicated treatments. SKMEL5 cells were used with or without transfection to express constitutively active GSK3β. A375 cells were used with or without transfection to express GSK3β specific shRNA under a doxycycline-controlled promoter.
(§2) Multiplex immunoassay kits were used for detection of total and/or phosphorylated biomarkers (supplied by Meso Scale Discovery, a division of Meso Scale Diagnostics, LLC, Rockville, Md.). Levels of each biomarker were determined by calibration of the assays with were either purified calibrator proteins or using control cell lysates from appropriately treated cultured cell lines (e.g., cells subjected to conditions known to induce or reduce levels of a specific biomarker). Calibration curves were derived by testing serial dilutions of the calibrator lysates or purified proteins. Levels of biomarkers in test samples were back-calculated from the calibration curves and were expressed in terms of wt. (or arbitrary Units for phospho-protein markers) of protein per weight of tissue extract (for purified calibrators) or in terms of weight of crude control lysate protein per well (for lysate calibrators). Titrations of tumor extracts were carried out to determine the linearity of the assay response to sample dilution and to select the sample dilution that would be appropriate to use for each assay panel.
(§3) In general, the assay format was as follows, with minor alterations for specific assay panels as indicated in the assay protocols provided with each assay kit (supplied by Meso Scale Discovery, Rockville, Md.): (1) block MSD MULTI-SPOT® plate for 1 hour with appropriate MSD® blocking solution and wash; (2) add 25 μl assay diluent to each well, if specified; (3) add 25 μl calibrator, or sample (diluted as appropriate) to each well; (4) incubate with shaking for 1-3 hours (time as specified) and wash the well; (5) add 25 μl labeled detection antibody solution to each well; (6) incubate with shaking for 1-2 hours (time as specified) and wash the well; (7) add 150 μl MSD read buffer to each well; (8) read plate immediately on MSD SECTOR® Imager 6000 Reader (supplied by Meso Scale Discovery, Rockville, Md.).
(§4) Tumor tissue extracts were assayed at 5-10 μg/well total protein per well. Samples from each set were assayed on the same plate. […] The signals obtained are not normalized to any housekeeping tissue factor, which may serve to improve animal-to-animal reproducibility, but are normalized to total lysate protein.
(§5) Samples that were not treated with drug are designated as (−) and those treated with drug as (+).

[2] = system: A375 xenograft; test: Biomarker levels in A375 control melanoma xenograft tumor extracts (MSD multiplex immunoassay); format: in vivo, mice
Description: as §1, §2, §3, §4, §5

[3] = system: SKMEL5 xenograft; test: Biomarker levels in SKMEL5 wt melanoma xenograft tumor extracts (MSD multiplex immunoassay); format: in vivo, mice
Description: as §1, §2, §3, §4, §5

[4] = system: A375 (GSKshRNA) xenograft; test: Biomarker levels in A375 GSK3β shRNA melanoma xenograft tumor extracts (MSD multiplex immunoassay); format: in vivo, mice
Description: as §1, §2, §3, §4, §5

[5] = system: A375 cells; settings: cited from earlier work
[6] = system: A375 (GSKshRNA) xenograft + doxycycline; test: Biomarker levels in A375 shRNA + Dox melanoma xenograft tumor extracts (MSD multiplex immunoassay); format: in vivo, mice; settings: A375 shRNA + Dox tumor extract, sorafenib (+), mean
Description: as §1, §2, §3, §4, §5

[7] = system: SKMEL5 (active GSK3beta) xenograft; test: Biomarker levels in SKMEL5 GSK3β+ (active GSK3beta) melanoma xenograft tumor extracts (MSD multiplex immunoassay); format: in vivo, mice
Description: as §1, §2, §3, §4, §5

[8] = system: A498 xenograft; test: Biomarker levels in A498 RCC xenograft tumor extracts (MSD multiplex immunoassay); format: in vivo, mice; settings: A498 tumor extract, sunitinib (+), mean
Description: as §1, §2, §3, §4, §5

[9] = A375 control tumor extract, sorafenib (+), mean
[10] = wild type A375 tumors, sorafenib
[11] = SKMEL5 wt tumor extract, sorafenib (+), mean
[12] = A375 GSK3β shRNA tumor extract, sorafenib (+), mean
[13] = SKMEL5 GSK3β+ tumor extract, sorafenib (+), mean
[14] = 786-0 tumor extract, sunitinib (+), mean

Which results are given for `CNC(=O)c1cc(Oc2ccc(NC(=O)Nc3ccc(Cl)c(C(F)(F)F)c3)cc2)ccn1` [sorafenib]?
change in VEGF levels with treatment ([1]; 786-0, treated vs untreated): increased levels of VEGF; Akt [2, 9]: 5.3 pg/ug pr; GSK3β [2, 9]: 84 pg/ug pr; Rb [2, 9]: 3.45 pg/ug pr; SRFP-1 [2, 9]: 1.30 pg/ug pr; Wnt3A [2, 9]: 23.2 pg/ug pr; c-Met [2, 9]: 0.23 ng/ug pr; dephospho β-catenin [2, 9]: 7.3 Units/ug pr; phospho-Rb [2, 9]: 0.21 Units/ug pr; phospho-cMet [2, 9]: 3.6 pg lys cal/ug pr; phosphor-Akt [2, 9]: 8.5 Units/ug pr; β-catenin [2, 9]: 32 pg/ug pr; change in total Rb levels with treatment ([2]; control A375, sorafenib, most samples at or below detection limits): increase in its levels; change in phospho-GSK3β with treatment [2, 10]: no changes; change in total GSK3β with treatment [2, 10]: no changes; change in E-cadherin levels with treatment ([3]; SKMEL5 not transfected, sorafenib): no additional effect; change in phospho-Akt levels with treatment ([3]; SKMEL5 tumors, sorafenib): unchanged phospho-Akt levels; change in total Akt levels with treatment ([3]; SKMEL5 tumors, sorafenib): reduced levels of total Akt; Akt [3, 11]: 22.3 pg/ug pr; E-Cadherin [3, 11]: 10.9 pg/ug pr; GSK3β [3, 11]: 162 pg/ug pr; Rb [3, 11]: 0.23 pg/ug pr; SRFP-1 [3, 11]: 0.08 pg/ug pr; VEGF [3, 11]: 0.8 pg/ug pr; Wnt3A [3, 11]: 6.2 pg/ug pr; c-Met [3, 11]: 0.51 ng/ug pr; dephospho β-catenin [3, 11]: 7.4 Units/ug pr; phospho-GSK3β [3, 11]: 44.0 Units/ug pr; phospho-Rb [3, 11]: 0.62 Units/ug pr; phospho-cMet [3, 11]: 15.7 pg lys cal/ug pr; β-catenin [3, 11]: 31 pg/ug pr; change in active (dephospho) β-catenin with treatment ([3]; wt SKMEL5 tumors, sorafenib): decreased; change in GSK3β phosphorylation with treatment ([3]; wt SKMEL5 tumors, sorafenib, total cellular protein): A reduction in GSK3β phosphorylation was not observed; Akt [4, 12]: 2.2 pg/ug pr; GSK3β [4, 12]: 50 pg/ug pr; Rb [4, 12]: 0.96 pg/ug pr; SRFP-1 [4, 12]: 0.35 pg/ug pr; VEGF [4, 12]: 8.5 pg/ug pr; Wnt3A [4, 12]: 12.0 pg/ug pr; c-Met [4, 12]: 0.16 ng/ug pr; dephospho β-catenin [4, 12]: 3.0 Units/ug pr; phospho-GSK3β [4, 12]: 11.1 Units/ug pr; phospho-Rb [4, 12]: 0.13 Units/ug pr; phospho-cMet [4, 12]: 1.8 pg lys cal/ug pr; phosphor-Akt [4, 12]: 5.9 Units/ug pr; β-catenin [4, 12]: 16 pg/ug pr; change in levels of active β-catenin with treatment ([4]; shRNA transfected A375 tumors, sorafenib): reduction in levels of active β-catenin; sorafenib-induced apoptosis ([5]; A375 cells, down-modulation of GSK3β with shRNA): increase sorafenib-induced apoptosis; sorafenib-induced apoptosis ([5]; wild type A375 cells, endogenous active GSK3β): resistance to sorafenib-induced apoptosis; Akt [6]: 1.6 pg/ug pr; GSK3β [6]: 24 pg/ug pr; Rb [6]: 0.27 pg/ug pr; SRFP-1 [6]: 0.22 pg/ug pr; VEGF [6]: 2.6 pg/ug pr; c-Met [6]: 0.10 ng/ug pr; dephospho β-catenin [6]: 2.9 Units/ug pr; phospho-GSK3β [6]: 6.6 Units/ug pr; phospho-Rb [6]: 0.10 Units/ug pr; phospho-cMet [6]: 1.4 pg lys cal/ug pr; phosphor-Akt [6]: 6.1 Units/ug pr; β-catenin [6]: 21 pg/ug pr; Akt [7, 13]: 32.4 pg/ug pr; E-Cadherin [7, 13]: 0.0 pg/ug pr; GSK3β [7, 13]: 88 pg/ug pr; Rb [7, 13]: 0.63 pg/ug pr; SRFP-1 [7, 13]: 0.22 pg/ug pr; VEGF [7, 13]: 7.2 pg/ug pr; c-Met [7, 13]: 0.59 ng/ug pr; dephospho β-catenin [7, 13]: 12.6 Units/ug pr; phospho-GSK3β [7, 13]: 7.9 Units/ug pr; phospho-Rb [7, 13]: 0.53 Units/ug pr; phospho-cMet [7, 13]: 7.2 pg lys cal/ug pr; phosphor-Akt [7, 13]: 14.3 Units/ug pr; β-catenin [7, 13]: 39 pg/ug pr; change in E-cadherin levels with treatment ([7]; SKMEL5 transfected (active GSK3β), sorafenib): no additional effect

For `CCN(CC)CCNC(=O)c1c(C)[nH]c(/C=C2\C(=O)Nc3ccc(F)cc32)c1C` [sunitinib], which Akt [8] is on record?
Its Akt is 6.3 pg/ug pr.

And the E-Cadherin [8]?
Its E-Cadherin is 0.0 pg/ug pr.

And the GSK3β [8]?
The GSK3β was 24 pg/ug pr.

What about the Rb [8] of the same molecule?
Its Rb is 0.00 pg/ug pr.

What about the SRFP-1 [8] of the same molecule?
The SRFP-1 was 0.15 pg/ug pr.

What about the VEGF [8] of the same molecule?
Its VEGF is 5.8 pg/ug pr.

What about the Wnt3A [8] of the same molecule?
The Wnt3A was 8.8 pg/ug pr.

And the c-Met [8]?
Its c-Met is 1.47 ng/ug pr.

And the “dephospho β-catenin” value [8]?
Its value is 3.4 Units/ug pr.

And the phospho-GSK3β [8]?
The phospho-GSK3β was 14.2 Units/ug pr.

And the phospho-Rb [8]?
The phospho-Rb was 0.08 Units/ug pr.

And the phospho-cMet [8]?
Its phospho-cMet is 73.6 pg lys cal/ug pr.

What about the phosphor-Akt [8] of the same molecule?
Its phosphor-Akt is 59.1 Units/ug pr.

And the β-catenin [8]?
The β-catenin was 34 pg/ug pr.

What about the Akt [1, 14] of the same molecule?
The Akt was 9.3 pg/ug pr.

What about the E-Cadherin [1, 14] of the same molecule?
Its E-Cadherin is 0.1 pg/ug pr.

What about the GSK3β [1, 14] of the same molecule?
The GSK3β was 61 pg/ug pr.

What about the Rb [1, 14] of the same molecule?
The Rb was 6.48 pg/ug pr.

What about the SRFP-1 [1, 14] of the same molecule?
The SRFP-1 was 0.23 pg/ug pr.

And the VEGF [1, 14]?
Its VEGF is 38.3 pg/ug pr.

And the Wnt3A [1, 14]?
The Wnt3A was 11.8 pg/ug pr.

What about the c-Met [1, 14] of the same molecule?
The c-Met was 1.26 ng/ug pr.

What about the “dephospho β-catenin” value [1, 14] of the same molecule?
The value was 23.3 Units/ug pr.

And the phospho-GSK3β [1, 14]?
The phospho-GSK3β was 5.9 Units/ug pr.

And the phospho-Rb [1, 14]?
The phospho-Rb was 0.14 Units/ug pr.

What about the phospho-cMet [1, 14] of the same molecule?
The phospho-cMet was 31.5 pg lys cal/ug pr.

What about the phosphor-Akt [1, 14] of the same molecule?
Its phosphor-Akt is 78.5 Units/ug pr.

And the β-catenin [1, 14]?
The β-catenin was 82 pg/ug pr.
